{"source": "patent US20260262643A1", "about": "“HERBICIDAL BENZOXAZINES” (FMC CORPORATION, priority 2022, published 2026)", "key": {"pigweed, palmer [1]": {"test_system": "pigweed, palmer", "test": "Test A preemergence", "type": "in vivo, Amaranthus palmeri", "details": "0 to 100 scale", "procedure,_shortened": "(§1)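 Visual injury ratings on a 0–100 scale (100 = complete control) versus untreated controls, taken 10 days after treatment in greenhouse. Preemergence: directed soil spray onto seeded loam/sand. Postemergence: foliar application at one- to two-leaf stage, plants 2–10 cm. Formulation: non-phytotoxic solvent plus surfactant.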"}, "corn [2]": {"test_system": "corn", "test": "Test A postemergence", "type": "in vivo, Zea mays", "details": "postemergence, 10 days", "procedure,_shortened": "as §1"}, "barnyardgrass [3]": {"test_system": "barnyardgrass", "test": "Test A postemergence", "type": "in vivo, Echinochloa crusgalli", "details": "postemergence, 10 days", "source_text": "(§2) Seeds of plant species selected from barnyardgrass (Echinochloa crusgalli), blackgrass (Alopecurus myosuroides), corn (Zea mays), foxtail, giant (giant foxtail, Setaria faberi), goosegrass (Eleusine indica), kochia (Bassia scoparia), oat, wild (wild oat, Avena fatua), pigweed, palmer (palmer amaranth, palmer pigweed, Amaranthus palmeri), Pigweed, Redroot (redroot pigweed, Amaranthus retroflexus), ragweed (common ragweed, Ambrosia artemisiifolia), ryegrass, Italian (italian ryegrass, Lolium multiflorum), soybean (Glycine max), and wheat (Triticum aestivum) were planted into a blend of loam soil and sand and treated preemergence with a directed soil spray using test chemicals formulated in a non-phytotoxic solvent mixture which included a surfactant. At the same time, plants selected from these crops and weed species and also galium (catchweed bedstraw, Galium aparine) and horseweed (Erigeron canadensis) were planted in pots containing the same blend of loam soil and sand and treated with postemergence applications of test chemicals formulated in the same manner. Plants ranged in height from 2 to 10 cm and were in the one- to two-leaf stage for the postemergence treatment. Treated plants and untreated controls were maintained in a greenhouse for 10 days, after which time all treated plants were compared to untreated controls and visually evaluated for injury. Plant response ratings, summarized in Table A, are based on a 0 to 100 scale where 0 is no effect and 100 is complete control. A dash (-) response means no test result."}, "sedge, umbrella": {"test_system": "sedge, umbrella", "test": "Test B flooded paddy test", "type": "in vivo, Cyperus difformis", "details": "250 g ai/ha, Flood, 13 days, 0 to 100 scale (0 no effect, 100 complete control)", "procedure,_shortened": "(§3)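 Species grown to 2-leaf stage; pots flooded 3 cm above soil and compound applied directly to paddy water, depth maintained throughout. After 13 days in greenhouse, plants visually rated against controls on 0–100 scale (0 no effect, 100 complete control); dash means no result.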"}, "ragweed [4]": {"test_system": "ragweed", "test": "Test A postemergence", "type": "in vivo, Ambrosia artemisiifolia", "details": "postemergence, 10 days", "procedure,_shortened": "as §1"}, "ducksalad": {"test_system": "ducksalad", "test": "Test B flooded paddy test", "type": "in vivo, Heteranthera limosa", "details": "250 g ai/ha, Flood, 13 days, 0 to 100 scale (0 no effect, 100 complete control)", "procedure,_shortened": "as §3"}, "oat, wild [5]": {"test_system": "oat, wild", "test": "Test A preemergence", "type": "in vivo, Avena fatua", "details": "0 to 100 scale", "procedure,_shortened": "as §1"}, "corn [6]": {"test_system": "corn", "test": "Test A preemergence", "type": "in vivo, Zea mays", "details": "0 to 100 scale", "procedure,_shortened": "as §1"}, "ryegrass, Italian [7]": {"test_system": "ryegrass, Italian", "test": "Test A preemergence", "type": "in vivo, Lolium multiflorum", "details": "0 to 100 scale", "procedure,_shortened": "as §1"}, "rice": {"test_system": "rice", "test": "Test B flooded paddy test", "type": "in vivo, Oryza sativa", "details": "250 g ai/ha, Flood, 13 days, 0 to 100 scale (0 no effect, 100 complete control)", "procedure,_shortened": "as §3"}, "pigweed, palmer [8]": {"test_system": "pigweed, palmer", "test": "Test A postemergence", "type": "in vivo, Amaranthus palmeri", "details": "postemergence, 10 days", "procedure,_shortened": "as §1"}, "horseweed": {"test_system": "horseweed", "test": "Test A postemergence", "type": "in vivo, Erigeron canadensis", "details": "postemergence, 10 days", "procedure,_shortened": "as §1"}, "soybean [9]": {"test_system": "soybean", "test": "Test A postemergence", "type": "in vivo, Glycine max", "details": "postemergence, 10 days", "procedure,_shortened": "as §1"}, "blackgrass [10]": {"test_system": "blackgrass", "test": "Test A preemergence", "type": "in vivo, Alopecurus myosuroides", "details": "0 to 100 scale", "procedure,_shortened": "as §1"}, "soybean [11]": {"test_system": "soybean", "test": "Test A preemergence", "type": "in vivo, Glycine max", "details": "0 to 100 scale", "procedure,_shortened": "as §1"}, "kochia [12]": {"test_system": "kochia", "test": "Test A postemergence", "type": "in vivo, Bassia scoparia", "details": "postemergence, 10 days", "procedure,_shortened": "as §1"}, "wheat [13]": {"test_system": "wheat", "test": "Test A preemergence", "type": "in vivo, Triticum aestivum", "details": "0 to 100 scale", "procedure,_shortened": "as §1"}, "foxtail, giant": {"test_system": "foxtail, giant", "test": "Test A preemergence", "type": "in vivo, Setaria faberi", "details": "0 to 100 scale", "procedure,_shortened": "as §1"}, "blackgrass [14]": {"test_system": "blackgrass", "test": "Test A postemergence", "type": "in vivo, Alopecurus myosuroides", "details": "postemergence, 10 days", "procedure,_shortened": "as §1"}, "kochia [15]": {"test_system": "kochia", "test": "Test A preemergence", "type": "in vivo, Bassia scoparia", "details": "0 to 100 scale", "procedure,_shortened": "as §1"}, "barnyardgrass [16]": {"test_system": "barnyardgrass", "test": "Test A preemergence", "type": "in vivo, Echinochloa crusgalli", "details": "visual injury after 10 days, 0 to 100 scale, 0 is no effect, 100 is complete control", "source_text": "as §2"}, "barnyardgrass [17]": {"test_system": "barnyardgrass", "test": "Test B flooded paddy test", "type": "in vivo, Echinochloa crus-galli", "details": "250 g ai/ha, Flood, 13 days, 0 to 100 scale (0 no effect, 100 complete control)", "procedure,_shortened": "as §3"}, "ryegrass, Italian [18]": {"test_system": "ryegrass, Italian", "test": "Test A postemergence", "type": "in vivo, Lolium multiflorum", "details": "postemergence, 10 days", "procedure,_shortened": "as §1"}, "ragweed [19]": {"test_system": "ragweed", "test": "Test A preemergence", "type": "in vivo, Ambrosia artemisiifolia", "details": "0 to 100 scale", "procedure,_shortened": "as §1"}, "wheat [20]": {"test_system": "wheat", "test": "Test A postemergence", "type": "in vivo, Triticum aestivum", "details": "postemergence, 10 days", "procedure,_shortened": "as §1"}, "galium": {"test_system": "galium", "test": "Test A postemergence", "type": "in vivo, Galium aparine", "details": "postemergence, 10 days", "procedure,_shortened": "as §1"}, "oat, wild [21]": {"test_system": "oat, wild", "test": "Test A postemergence", "type": "in vivo, Avena fatua", "details": "postemergence, 10 days", "procedure,_shortened": "as §1"}, "[22]": {"details": "500 g ai/ha, visual injury after 10 days, 0 is no effect, 100 is complete control"}, "[23]": {"details": "125 g ai/ha, 0 to 100 scale, 0 no effect, 100 complete control"}, "[24]": {"details": "500 g ai/ha, visual injury, 0 to 100 scale (0 no effect, 100 complete control)"}}, "data": [{"smiles": "Cc1ccc(-n2cnc(CO)n2)cc1C(=O)N1C[C@H](C)Oc2c(Cl)cccc21", "note": "[Compound 148]", "values": [{"measurement": "Plant response rating, Pigweed, Palmer", "setting": "pigweed, palmer [1]; 125 g ai/ha", "value": 100}, {"measurement": "Plant response rating, Pigweed, Palmer", "setting": "pigweed, palmer [1]; [22]", "value": 100}, {"measurement": "Corn plant response rating", "setting": "corn [2]; [23]", "value": 80}, {"measurement": "Plant response rating, Corn", "setting": "corn [2]; [24]", "value": 90}, {"measurement": "Barnyardgrass plant response rating", "setting": "barnyardgrass [3]; [23]", "value": 30}, {"measurement": "Plant response rating, Barnyardgrass", "setting": "barnyardgrass [3]; [24]", "value": 80}, {"measurement": "Plant response rating, Sedge, Umbrella", "setting": "sedge, umbrella", "value": 65}, {"measurement": "Ragweed plant response rating", "setting": "ragweed [4]; [23]", "value": 50}, {"measurement": "Plant response rating, Ragweed", "setting": "ragweed [4]; [24]", "value": 70}, {"measurement": "Plant response rating, Ducksalad", "setting": "ducksalad", "value": 55}, {"measurement": "Plant response rating, Oat, Wild", "setting": "oat, wild [5]; 125 g ai/ha", "value": 20}, {"measurement": "Plant response rating, Oat, Wild", "setting": "oat, wild [5]; [22]", "value": 80}, {"measurement": "Plant response rating, Corn", "setting": "corn [6]; 125 g ai/ha", "value": 60}, {"measurement": "Plant response rating, Corn", "setting": "corn [6]; [22]", "value": 60}, {"measurement": "Plant response rating, Ryegrass, Italian", "setting": "ryegrass, Italian [7]; 125 g ai/ha", "value": 80}, {"measurement": "Plant response rating, Ryegrass, Italian", "setting": "ryegrass, Italian [7]; [22]", "value": 100}, {"measurement": "Plant response rating, Rice", "setting": "rice", "value": 15}, {"measurement": "Pigweed, Palmer plant response rating", "setting": "pigweed, palmer [8]; [23]", "value": 90}, {"measurement": "Plant response rating, Pigweed, Palmer", "setting": "pigweed, palmer [8]; [24]", "value": 100}, {"measurement": "Horseweed plant response rating", "setting": "horseweed; [23]", "value": 50}, {"measurement": "Plant response rating, Horseweed", "setting": "horseweed; [24]", "value": 50}, {"measurement": "Soybean plant response rating", "setting": "soybean [9]; [23]", "value": 100}, {"measurement": "Plant response rating, Soybean", "setting": "soybean [9]; [24]", "value": 100}, {"measurement": "Plant response rating, Blackgrass", "setting": "blackgrass [10]; 125 g ai/ha", "value": 80}, {"measurement": "Plant response rating, Blackgrass", "setting": "blackgrass [10]; [22]", "value": 90}, {"measurement": "Plant response rating, Soybean", "setting": "soybean [11]; 125 g ai/ha", "value": 70}, {"measurement": "Plant response rating, Soybean", "setting": "soybean [11]; [22]", "value": 100}, {"measurement": "Kochia plant response rating", "setting": "kochia [12]; [23]", "value": 50}, {"measurement": "Plant response rating, Kochia", "setting": "kochia [12]; [24]", "value": 80}, {"measurement": "Plant response rating, Wheat", "setting": "wheat [13]; 125 g ai/ha", "value": 30}, {"measurement": "Plant response rating, Wheat", "setting": "wheat [13]; [22]", "value": 90}, {"measurement": "Plant response rating, Foxtail, Giant", "setting": "foxtail, giant; 125 g ai/ha", "value": 100}, {"measurement": "Plant response rating, Foxtail, Giant", "setting": "foxtail, giant; [22]", "value": 100}, {"measurement": "Blackgrass plant response rating", "setting": "blackgrass [14]; [23]", "value": 40}, {"measurement": "Plant response rating, Blackgrass", "setting": "blackgrass [14]; [24]", "value": 90}, {"measurement": "Plant response rating, Kochia", "setting": "kochia [15]; 125 g ai/ha", "value": 20}, {"measurement": "Plant response rating, Kochia", "setting": "kochia [15]; [22]", "value": 70}, {"measurement": "Plant response rating, Barnyardgrass", "setting": "barnyardgrass [16]; 125 g ai/ha", "value": 70}, {"measurement": "Plant response rating, Barnyardgrass", "setting": "barnyardgrass [16]; 500 g ai/ha", "value": 100}, {"measurement": "Plant response rating, Barnyardgrass", "setting": "barnyardgrass [17]", "value": 25}, {"measurement": "Ryegrass, Italian plant response rating", "setting": "ryegrass, Italian [18]; [23]", "value": 50}, {"measurement": "Plant response rating, Ryegrass, Italian", "setting": "ryegrass, Italian [18]; [24]", "value": 80}, {"measurement": "Plant response rating, Ragweed", "setting": "ragweed [19]; 125 g ai/ha", "value": 30}, {"measurement": "Plant response rating, Ragweed", "setting": "ragweed [19]; [22]", "value": 90}, {"measurement": "Wheat plant response rating", "setting": "wheat [20]; [23]", "value": 30}, {"measurement": "Plant response rating, Wheat", "setting": "wheat [20]; [24]", "value": 70}, {"measurement": "Galium plant response rating", "setting": "galium; [23]", "value": 90}, {"measurement": "Plant response rating, Galium", "setting": "galium; [24]", "value": 100}, {"measurement": "Oat, Wild plant response rating", "setting": "oat, wild [21]; [23]", "value": 20}, {"measurement": "Plant response rating, Oat, Wild", "setting": "oat, wild [21]; [24]", "value": 70}]}]}
